Assays:
[1] = Determination of the hydrolysis rate of monomers in alkaline environment (pH 12); format: physicochemical; details: monomer in aqueous solution, starting pH 12, 25 °C

| Hydrolysis Rate (4.5 h) [1] [%] | Hydrolysis Rate after 24 h [1] [%] | melting point [°C] | Compound |
| --- | --- | --- | --- |
| 64.4 |  |  | 2-Methacryloyloxymethylbenzoate |
|  | 54.8 |  | 4-Methacryloyloxymethylbenzoate |
|  | 12.6 | 110 | C=C(C)C(=O)Sc1nc(-c2ccccc2)ns1 [3-Phenyl-5-methacryloylthio-1,2,4-thiadiazole] |
|  | 78.0 |  | C=C(C)C(=O)Sc1ccc(Cl)cc1 [4-Chlorothlophenylmethacrylate] |
|  | 32.9 |  | C=C(C)C(=O)Oc1ccc(NC(C)=O)cc1 [4-Methacryloyloxy acetanilide] |
|  | 43.2 | 40 | C=C(C)C(=O)Oc1ccc(OC)cc1 [4-Methoxyphenylmethacrylate] |
|  | 35.6 | 52 | C=C(C)C(=O)Oc1ccc(Br)cc1C=O [5-Bromo-2-methacryloyloxybenzaldehyde] |
| 63.1 |  | 60 | C=C(C)C(=O)OCC(=O)OC [Methoxycarbonylmethylmethacrylate] |

| Compound | Hydrolysis Rate (4.5 h) [1] [%] | Hydrolysis Rate after 24 h [1] [%] | melting point [°C] |
| --- | --- | --- | --- |
| C=C(C)C(=O)Oc1c(Br)cc(Br)cc1Br [2,4,6-Tribromophenylmethacrylate] |  | 13.3 | 140 |
| C=C(C)C(=O)OCC(=O)O [Methacryloytoxy acetic acid] |  | 70.1 |  |
| C=C(C)C(=O)OCC(=O)OC(C)(C)C [t-Butoxycarbonylmethylmethacrylate] |  | 77.6 | 65 |
| Ethyloxythioglycolic acid methacrylate |  | 80.2 |  |

From patent publication US20030225230A1, “Polymers for antifouling coatings and a process for the preparation thereof” (Jotun A/S, priority 1995, published 2003)
